Here are results for seven compounds from patent US20250367283A1, “MEVALONATE PATHWAY INHIBITOR AS HIGHLY-EFFICIENT VACCINE ADJUVANT” (Tsinghua University, priority 2015, published 2025).

Experiment [1] relates to anti-OVA IgM and IgG antibodies. As to the kind of experiment: Rescue experiment of GGPP and GGOH on adjuvant activity. To be noted: for effect of GGPP and GGOH on adjuvant effects: GGPP and GGOH added; for IgG and IgM antibody titers vs PBS control: without addition of GGPP or GGOH. It counts as in vivo, mice. The protocol:
In particular, we investigated the effect of GGOH and GGPP on the adjuvant activity of simvastatin (HMG-COA reductase inhibitor), TH-Z93 (FPPS inhibitor), and TH-Z145 (GGPPS inhibitor).
Method: Simvastatin, TH-Z93 and TH-Z145 were formulated at a concentration of 10 mg/ml; the concentration of OVA antigen was 20 mg/ml; and GGOH and GGPP were formulated into a series of solutions at concentrations of 200 mg/ml, 100 mg/ml, 40 mg/ml and 20 mg/ml, respectively. For the experimental group, on the one hand, titers of antibodies were measured when immunization was performed without adding GGOH or GGPP while only mixing 10 μl of test compound and 5 μl of OVA antigen. On the other hand, titers of antibodies were measured when immunization was performed after adding GGOH or GGPP; specifically, 10 μl of test compound, 5 μl of OVA antigen and 5 μl of each concentration of GGOH or GGPP (total volume of 20 μl) were mixed and used for immunization in mice by injection at the sole of the right feet. Mice in the control group were treated with PBS and the antigen only, without addition of test compounds and GGOH or GGPP. On Day 7 and Day 14 after immunization, blood was taken from the mice's orbit, and 100 μl was taken for each mouse. The obtained blood was left at 4° C. overnight. The serum was separated, and titers of anti-OVA IgM and IgG antibodies in the serum were determined.

Experiment [2] deals with B lymphocytes, T lymphocytes, macrophages and dendritic cells in lymph nodes. As to the kind of experiment: Recruitment of cells in lymph nodes after immunization. The conditions noted are these: 24 hours after subcutaneous immunization, vs Ctrl and PBS. It counts as in vivo, mice. Here is the method: Method: Following an similar procedure of example 1, OVA was used as antigen and three inhibitor compounds, simvastatin, TH-Z80, and TH-Z145 were added as adjuvants, respectively. The OVA antigen and adjuvant were mixed at 1:1 and used for immunizing mice by subcutaneous injection. 24 hours after immunization, inguinal lymph nodes ipsilateral to the immunization were removed and separated through a 100 mesh screen into single-cell suspension. Flow cytometry was used to determine changes of the proportions and numbers of B lymphocytes, T lymphocytes, macrophages and dendritic cells in lymph nodes. The marker of the B lymphocyte was B220, the marker of the T lymphocyte was CD3, the markers of the macrophage were CD11b and F4/80, and the marker of the dendritic cell was CD11c.

Experiment [3] concerns anti-OVA IgM and IgG antibodies. As to the kind of experiment: OVA evaluation system: adjuvant activity in antibody titer in mice. The class given is in vivo. To be noted: for adjuvant effect among TH-Z80 series: intramuscular, OVA; for adjuvant effect among bisphosphonic acid compounds / adjuvant effect vs 8 commercially available bisphosphonic acid compounds: 100 ug. The protocol: OVA evaluation system was used to determine adjuvant activity in antibody titer.
Mice of C57B/6 strain were used. The mice in the experimental group were injected with the obtained mixture of each of the statins and OVA antigen through soles injection, with 20 μl for each mouse. The mice in the control group were injected with a 1:1 mixture of PBS or DMSO (10 μl) and 10 μl OVA antigen (PBS or DMSO is 10 μl, respectively, and the antigen is 10 μl) through soles injection, with 20 μl for each mouse. On Day 7 and Day 14 after immunization, blood was taken from the mice's orbits, with 100 μl was taken from each mouse. The obtained blood was left at 4° C. overnight, and centrifuged at 6000 rpm for 8 min. The supernatant serum was removed and the titers of anti-OVA IgM and IgG antibodies in the serum were determined.
Test of the OVA antibody titer: The OVA protein was diluted to a concentration of 2 μg/ml with a carbonate solution of pH 9.6, coated in a 96-well ELISA plate at 50 μl per well, and left at 4° C. overnight. The ELISA plate was washed five times with PBS containing 0.05% Tween 20, blocked with 1% BSA solution at 200 μl per well, and incubated at room temperature for 2 h. The ELISA plate was washed five times with PBST (Phosphate Buffered Saline with Tween), a 2-fold serial dilution of the mouse serum after immunized with OVA was added at 50 μl per well and incubated at room temperature for 2 h. After the ELISA plate was washed five times with PBST, HRP (horseradish peroxidase)-labeled goat-anti-mouse IgM or IgG antibody was added and incubated at room temperature for 45 min. The ELISA plate was washed five times with PBST, and a color developing solution of sodium citrate OPD (o-phenylenediamine) was added. After 10 min of color development in the dark, sulfuric acid was added to terminate the reaction. The reading was performed with ELIASA OD490. The maximum serum dilution factor, when the ratio of light absorptions of the experimental group to the control group was >2.0, was the titer of the anti-OVA antibody in the serum.
Each test compound was formulated at a concentration of 2 mg/ml and the concentration of OVA antigen was 2 mg/ml. Each compound was mixed with OVA at 1:1. Each C57B/6 mouse in the experimental group was injected with 100 μl of the mixture (containing 50 μl of the antigen and 50 μl of the compound) by intramuscular injection at the right thigh. On Day 7 and Day 14 after immunization, blood was taken from the mice's orbit, and 100 μl was taken for each mouse. The obtained blood was allowed to stand at 4° C. overnight, and centrifuged at 6000 rpm for 8 min. The supernatant serum was removed, and the titers of anti-OVA IgM and IgG antibodies in the serum were determined.
Method: each of the test compounds (the 10 bisphosphonates as described above) was mixed with the OVE antigen at 1:1, and the concentrations of bisphosphonic acid and OVA were both 10 mg/ml. Mice of C57B/6 strain were used. The mice in the experimental group were injected with the mixture of each of the test compounds and OVA antigen through soles injection, with 20 μl for each mouse, and wherein the amounts of OVA antigen and each of the test compounds were both 100 ug. The mice in the control group were injected with a 1:1 mixture of […] and 10 μl OVA antigen through sole injection. On Day 7 and Day 14 after immunization, blood was taken from the mice's orbits, and 100 μl was taken from each mouse.
The obtained blood was left at 4° C. overnight, and centrifuged at 6000 rpm for 8 min. The supernatant serum was removed, and the titers of anti-OVA IgM and IgG antibodies in the serum were determined.
Method: TH-Z144 and TH-Z145 were prepared at the concentration of 10 mg/ml, the concentration of OVA antigen was also 10 mg/ml, and the compound and the antigen were mixed at 1:1. Mice of C57B/6 strain were used.

For experiment [4], the system named is Plasmodium falciparum 3D7. Description: Test of plasmodium activity (SYBR-GREEN1). The class given is cell-based. The conditions noted are these: infected erythrocytes, 72 hours; read-out: Malaria (IC50/μM). The protocol: Plasmodium falciparum 3D7 was cultured with […] medium mixed with 10% human O-type blood serum and 25 mM HEPES. The cultivation process was maintained in a carbon dioxide incubator under 5% carbon dioxide. In vitro drug testing experiments were performed on a 96-well plate. The test drug was dissolved in PBS and pre-diluted with complete medium. Infected erythrocytes were cultured in triplicate for 72 hours in 3-fold serial dilutions of drug. Then an equal amount of SYBR-GREEN1 was added to each well. The detection was then performed at 485 nm for excitation light and 538 nm for emitted light. […] ORIGIN 8.0 software was used to plot and fit.

[5] abbreviates: bisphosphonic acids 100 ug with OVA, soles injection, Day 7 and Day 14.

Take `CCC(C)(C)C(=O)O[C@H]1C[C@@H](C)C=C2C=C[C@H](C)[C@H](CC[C@@H]3C[C@@H](O)CC(=O)O3)[C@H]21` [simvastatin, reference compound]: in experiment [1], the “effect of GGPP and GGOH on adjuvant effects” value (“effect of GGPP and GGOH” below) is recorded as “effectively inhibit adjuvant effects”; the “IgG and IgM antibody titers vs PBS control” value was “significantly higher”. Further, the “proportions and numbers of B lymphocytes, T lymphocytes, macrophages and dendritic cells in lymph nodes” value (shortened to “proportions and numbers of B lymphocytes”) in experiment [2] is “significantly increased”. Besides, the “adjuvant effect among statin drugs” value in experiment [3] (statins with OVA, soles injection) is recorded as “most significant adjuvant effects”. The “IgM and IgG antibody titers vs PBS or DMSO control” value in experiment [3] (statins with OVA, soles injection, Day 7 and Day 14) was “significantly higher titers”.
Turning to `CCCCCCCOc1ccc2c(c1)ncn2CC(O)(P(=O)(O)O)P(=O)(O)O` [TH-Z152], the IC50 in experiment [4] amounted to 1.21 µM. Moreover, the “adjuvant effect among TH-Z80 series” value in experiment [3] is on record as “most significant adjuvant effects”.
Take `CCCCCCCCCOc1ccc2c(c1)ncn2CC(O)(P(=O)(O)O)P(=O)(O)O` [TH-Z153]: in experiment [4], the IC50 was 1.28 µM. Moreover, the “adjuvant effect among TH-Z80 series” value in experiment [3] is “most significant adjuvant effects”.
Take `CCCCCCOc1ccc2c(c1)ncn2CC(O)(P(=O)(O)O)P(=O)(O)O` [TH-Z80]: the “proportions and numbers of B lymphocytes” value in experiment [2] is listed as “significantly increased”. The IC50 in experiment [4] amounted to 1.76 µM. In addition, in experiment [3] (soles injection), the “adjuvant effect among bisphosphonic acid compounds” value was “most significant adjuvant effects” and the “adjuvant effect vs 8 commercially available bisphosphonic acid compounds” value is “much higher than any of the 8 commercially available bisphosphonic acid compounds”. In addition, the “IgM and IgG antibody titers vs PBS control” value in experiment [3] (setting [5]) is reported as “more than five times higher”. In addition, the “adjuvant effect among TH-Z80 series” value in experiment [3] is on record as “most significant adjuvant effects”. Besides, in experiment [3] (soles, subcutaneous, muscle, abdominal and nasal mucosa), the “antibody titers vs PBS control at different immunization sites” value is on record as “significantly increased”.
For “(2-(3-(octyloxy)phenyl)ethane-1,1-diyl)bisphosphonic acid [TH-Z145]”, in experiment [1], the “effect of GGPP and GGOH” value is given as “effectively inhibit adjuvant effects”; the “IgG and IgM antibody titers vs PBS control” value is “significantly higher”. For the same compound, the “proportions and numbers of B lymphocytes” value in experiment [2] was “significantly increased”. Besides, the “IgM and IgG antibody titers vs PBS control” value in experiment [3] (GGPPS inhibitors 100 μg with OVA, right sole, Day 7 and Day 14) is given as “significantly higher titers”.
Regarding `CCCCCCCCOc1ccc2c(c1)ncn2CC(O)(P(=O)(O)O)P(=O)(O)O` [TH-Z81], the IC50 in experiment [4] was determined as 1.95 µM. In experiment [3], the “adjuvant effect among TH-Z80 series” value is recorded as “most significant adjuvant effects”.
Turning to `CCCCCCOc1ccnc(NC(P(=O)(O)O)P(=O)(O)O)c1` [TH-Z93, (((4-(hexyloxy)pyridin-2-yl)amino)methylene)bisphosphonic acid], in experiment [1], the “effect of GGPP and GGOH” value is on record as “effectively inhibit adjuvant effects”; the “IgG and IgM antibody titers vs PBS control” value is given as “significantly higher”. For the same compound, in experiment [3] (soles injection), the “adjuvant effect among bisphosphonic acid compounds” value was “most significant adjuvant effects” and the “adjuvant effect vs 8 commercially available bisphosphonic acid compounds” value is “much higher than any of the 8 commercially available bisphosphonic acid compounds”. The “IgM and IgG antibody titers vs PBS control” value in experiment [3] (setting [5]) is “more than five times higher”.
